Measurements reported in patent US5719278A, “Tricyclic benzazepine vasopressin antagonists” (American Cyanamid Company, priority 1996, dated 1998).

Columns and labels:
Rat Hepatic V1 Receptors = molecular target: T1, Rat Hepatic V1 Receptors (Rattus norvegicus, UniProt P30560); assay: Binding Assay to Rat Hepatic V1 Receptors; settings: Rat Hepatic V1 Receptors (no asterisk)
T1 construct: Rat liver plasma membranes expressing the vasopressin V1 receptor subtypes; from tissue; host or cells: rat liver plasma membranes
Description: Binding Assay to Rat Hepatic V1 Receptors
Rat liver plasma membranes expressing the vasopressin V1 receptor subtypes are isolated by sucrose density gradient according to the method described by Lesko et al., (1973). These membranes are quickly suspended in 50.0 mM Tris.HCl buffer, pH 7.4, containing 0.2% bovine serum albumin (BSA) and 0.1 mM phenylmethylsulfonylfluoride (PMSF) and kept frozen at -70° C. until used in subsequent binding experiments. For binding experiments, the following is added to the wells of a ninety-six well format microtiter plate: 100 μl of 100.0 mM Tris.HCl buffer containing 10.0 mM MgCl2, 0.2% heat inactivated BSA and a mixture of protease inhibitors: leupeptin, 1.0 mg %; aprotinin, 1.0 mg %, 1,10-phenanthroline,2.0 mg %; trypsin inhibitor, 10.0 mg % and 0.1 mM PMSF, 20.0 μl of [phenylalanyl-3,4,5-^3 H] vasopressin (S.A. 45.1 Ci/mmole) at 0.8 nM, and the reaction initiated by the addition of 80 μl of tissue membranes containing 20 μg of tissue protein. The plates are kept undisturbed on the bench top at room temperature for 120 min. to reach equilibrium. Non-specific samples are assayed in the presence of 0.1 μM of the unlabeled antagonist phenylalanylvasopressin, added in 20.0 μl volume to a final incubation volume of 200 μl. Upon completion of binding, the content of each well is filtered off, using a Brandel® cell Harvester (Gaithersburg, Md.). The radioactivity trapped on the filter disk by the ligand-receptor complex is assessed by liquid scintillation counting in a Packard LS Counter, with an efficiency of 65% for tritium. The data are analyzed for IC50 values by the LUNDON-2 program for competition (LUNDON SOFTWARE, Ohio).

[1] = molecular target: T2, Rat Kidney Medullary V2 Receptors (Rattus norvegicus, UniProt Q00788); assay: Binding Assay to Rat Kidney Medullary V2 Receptors; settings: Rat Kidney Medullary V2 Receptors (no asterisk)
T2 construct: Medullary tissues from rat kidneys are dissected out; from tissue; host or cells: rat kidney medulla membranes
Description: Binding Assay to Rat Kidney Medullary V2 Receptors
Medullary tissues from rat kidneys are dissected out, cut into small pieces and let soak in a […] sodium chloride solution containing 1.0 mM EDTA with many changes of the liquid phase, until the solution is clear of blood. The tissue is homogenized in a 0.25M sucrose solution containing 1.0 mM EDTA and 0.1 mM PMSF using a Potter-Elvehjem homogenizer with a teflon pestle. The homogenate is filtered through several layers (4 layers) of cheese cloth. The filtrate is rehomogenized using a dounce homogenizer, with a tight fitting pestle. The final homogenate is contrifuged at 1500×g for 15 min. The nuclear pellet is discarded and the supernatant fluid recentrifuged at 40,000×g for 30 min. The resulting pellet formed contains a dark inner part with the exterior, slightly pink. The pink outer part is suspended in a small amount of 50.0 mM Tris.HCl buffer, pH 7.4. The protein content is determined by the Lowry's method (Lowry et al, J. Biol. Chem., 1953). The membrane suspension is stored at -70° C., in 50.0 mM Tris.HCl, containing 0.2% inactivated BSA and 0.1 mM PMSF in aliquots of 1.0 ml containing 10.0 mg protein per ml of suspension until use in subsequent binding experiments.
For binding experiments, the following is added in μl volume to wells of a 96 well format of a microtiter plate: 100.0 μl of 100.0 mM Tris.HCl buffer containing 0.2% heat inactivated BSA, 10.0 mM MgCl2 and a mixture of protease inhibitors: leupeptin, 1.0 mg %; aprotinin, 1.0 mg %; 1,10-phenanthroline, 2.0 mg %; trypsin inhibitor, 10.0 mg % and 0.1 mM PMSF, 20.0 μl of [^3 H]Arginine^8, vasopressin (S.A. 75.0 Ci/mmole) at 0.8 nM and the reaction initiated by the addition of 80.0 μl of tissue membranes (200.0 μg tissue protein). The plates are left undisturbed on the bench top for 120 min. to reach equilibrium. Non-specific binding is assessed in the presence of 1.0 μM of unlabeled ligand, added in 20 μl volume. For test compounds, these are solubilized in 50% dimethylsulfoxide (DMSO) and added in 20.0 μl volume to a final incubation volume of 200 μl. Upon completion of binding, the content of each well is filtered off, using a Brandel® cell Harvester (Gaithersburg, Md.). The radioactivity trapped on the filter disk by the ligand-receptor complex is assessed by liquid scintillation counting in a Packard LS Counter, with an efficiency of 65% for tritium. The data are analyzed for IC50 values by the LUNDON-2 program for competition (LUNDON SOFTWARE, Ohio).

oxytocin receptors = molecular target: T3, oxytocin receptors (Rattus norvegicus, UniProt P70536); assay: Oxytocin Receptor Binding; parameters: species or system Sprague-Dawley rat; settings: for IC50: 1.0 nM [^3 H]OT, 60 min., 22° C.
T3 construct: The uteri are dissected out, cleaned of fat and connective tissues; from tissue; host or cells: uterus of DES-treated female Sprague-Dawley rats
T3 sequence (P70536 1-388): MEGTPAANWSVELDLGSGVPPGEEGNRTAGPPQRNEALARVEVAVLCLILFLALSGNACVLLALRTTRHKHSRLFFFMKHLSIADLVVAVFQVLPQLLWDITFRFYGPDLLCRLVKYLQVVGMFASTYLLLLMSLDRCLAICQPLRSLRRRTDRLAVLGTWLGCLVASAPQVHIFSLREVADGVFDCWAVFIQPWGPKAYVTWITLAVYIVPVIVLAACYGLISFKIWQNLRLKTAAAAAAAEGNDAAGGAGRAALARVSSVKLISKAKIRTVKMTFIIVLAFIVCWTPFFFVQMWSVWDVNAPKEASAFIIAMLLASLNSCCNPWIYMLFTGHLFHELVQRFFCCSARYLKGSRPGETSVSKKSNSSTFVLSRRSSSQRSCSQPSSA
Description: Oxytocin Receptor Binding
Female Sprague-Dawley rats weighing approximately 200-250 g are injected intramuscularly (i.m.) with 0.3 mg/kg of body weight of diethylstilbestrol (DES). The rats are sacrificed 18 hours later under pentobarbital anesthesia. The uteri are dissected out, cleaned of fat and connective tissues and rinsed in 50 ml of normal saline. The tissue pooled from six rats is homogenized in 50 ml of […] TriS.HCl, containing 0.5 mM dithiothreitol and 1.0 mM EDTA, adjusted to pH 7.4, using a polytron at setting 6 with three passes of 10 sec each. The homogenate is passed through two (2) layers of cheesecloth and the filtrate contrifuged at 1000×g for 10 min. The clear supernatant is removed and recentrifuged at 165,000×g for 30 min. The resulting pellet containing the oxytocin receptors is resuspended in 50.0 mM Tris.HCl containing 5.0 mM MgCl2 at pH 7.4, to give a protein concentration of 2.5 mg/ml of tissue suspension. This preparation is used in subsequent binding assays with [^3 H]Oxytocin.
Binding of 3,5-[^3 H]Oxytocin ([^3 H]OT) to its receptors is done in microtiter plates using [^3 H]OT, at various concentrations, in an assay buffer of 50.0 mM Tris.HCl, pH 7.4 and containing 5.0 mM MgCl2, and a mixture of protease inhibitors: BSA, 0.1 mg; aprotinin, 1.0 mg; 1,10-phenanthroline, 2.0 mg; […], 10.0 mg; and PMSF, 0.3 mg per 100 ml of buffer solution. Non-specific binding is determined in the presence of 1.0 uM unlabeled OT. The binding reaction is terminated after 60 min., at 22° C., by rapid filtration through glass fiber filters using a Brandel® cell harvester (Biomedical Research and Development Laboratories, Inc., Gaithersburg, Md.). Competition experiments are conducted at equilibrium using 1.0 nM [^3 H]OT and varying the concentration of the displacing agents. The concentrations of agent displacing 50% of [^3 H]OT at its sites (IC50) are calculated by a computer assisted LUNDON-2 program (LUNDON SOFTWARE INC., Ohio, U.S.A.).

Vasopressin V2 = Vasopressin V2 Antagonist Activity in Conscious Hydrated Rats; assay type: in vivo, rat; settings: 10 mg/kg orally, N = 2, AVP 0.4 μg/kg intraperitoneally
Description: Vasopressin V2 Antagonist Activity in Conscious Hyrdated Rats
Conscious hydrated rats are treated with compounds under study from 0.1 to 100 mg/kg orally or vehicle. Two to four rats are used for each compound. One hour later, arginine vasopressin (AVP, antidiuretic hormone, ADH) dissolved in peanut oil is administered at 0.4 μg/kg intraperitoneally. Two rats in each test would not receive arginine vasopressin but only the vehicle (peanut oil) to serve as water-loading control. Twenty minutes later each rat is given 30 mL/kg of deionized water orally by gavage and is placed individually in a metabolic cage equipped with a funnel and a graduated glass cylinder to collect urine for four hours. Urine volume is measured and osmolality analyzed by use of a Fiske One-Ten osmometer (Fiske Assoc., Norwood, Mass. U.S.A.). Urinary sodium, potassium, and chloride are analyzed by use of ion-specific electrodes in a Beckman E3(Electrolyte 3) Analyzer.
In the following results, […] and decreased osmolality relative to AVP-control indicates activity.

T1 sequence (P30560 whole entry): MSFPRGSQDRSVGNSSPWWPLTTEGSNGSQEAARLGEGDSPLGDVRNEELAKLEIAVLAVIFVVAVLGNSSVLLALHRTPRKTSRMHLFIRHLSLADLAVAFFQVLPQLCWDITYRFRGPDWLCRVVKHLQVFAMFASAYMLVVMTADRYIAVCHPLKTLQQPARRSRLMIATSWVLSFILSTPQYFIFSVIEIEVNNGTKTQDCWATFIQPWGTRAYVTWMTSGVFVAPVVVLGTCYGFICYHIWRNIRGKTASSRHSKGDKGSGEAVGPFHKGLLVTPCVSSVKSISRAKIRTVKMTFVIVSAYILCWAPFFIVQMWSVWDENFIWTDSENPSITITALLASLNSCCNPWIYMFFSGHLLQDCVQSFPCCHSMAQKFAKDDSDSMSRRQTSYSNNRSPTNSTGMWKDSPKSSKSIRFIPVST
T2 sequence (Q00788 whole entry): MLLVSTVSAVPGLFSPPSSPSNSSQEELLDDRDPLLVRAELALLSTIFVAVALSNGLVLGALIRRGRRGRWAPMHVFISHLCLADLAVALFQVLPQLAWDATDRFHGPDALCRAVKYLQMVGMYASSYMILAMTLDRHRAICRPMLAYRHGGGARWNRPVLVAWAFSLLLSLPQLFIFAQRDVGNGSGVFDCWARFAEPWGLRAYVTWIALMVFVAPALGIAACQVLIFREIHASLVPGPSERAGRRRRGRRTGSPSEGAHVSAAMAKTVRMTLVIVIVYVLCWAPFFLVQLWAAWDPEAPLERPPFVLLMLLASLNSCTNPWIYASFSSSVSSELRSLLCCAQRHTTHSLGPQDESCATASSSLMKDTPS

Row | SMILES | IC50 (Rat Hepatic V1 Receptors) [µM] | IC50 [1] [µM] | IC50 (oxytocin receptors) [nM] | inhibition at 10 µM (oxytocin receptors) [%] | Urine Vol. (ml/4 hrs.) (Vasopressin V2) | Osmolality (mOsm/kg) (Vasopressin V2; urine)
1 | Cn1cc2c(n1)-c1sccc1N(C(=O)c1ccc(NC(=O)C3CCCCC3)cc1)CC2 [Example 6, N-[4-[[4,5-Dihydro-2-methylpyrazolo[3,4-d]thieno[3,2-b]-azepin-6(2H)-yl]carbonyl]phenyl]cyclohexane carboxamide] | 4.7 | 0.23 | 1700 | 94 | – | –
2 | Cc1ccc(F)cc1C(=O)Nc1ccc(C(=O)N2CCc3cn[nH]c3-c3sccc32)cc1 [Example 2, N-[4-[(4,5-Dihydropyrazolo[3,4-d]thieno[3,2-b]azepin-6(1H)-yl)carbonyl]phenyl]-5-fluoro-2methylbenzamide] | 1.7 | – | 1300 | 91 | 17.8 | 429
